Experimental data taken from ChEMBL document CHEMBL4627293, “Synthesis and in vitro activity of asymmetric indole-based bisamidine compounds against Gram-positive and Gram-negative pathogens” (2020).
Values after ≈ are worked out from the molar mass of the structure shown.

Tests used:
Type in all cases: functional
[1] = tested on: Enterococcus faecalis; test: Antimicrobial activity against Vancomycin-sensitive Enterococcus faecalis ATCC 29212
[2] = tested on: Staphylococcus epidermidis; test: Antimicrobial activity against methicillin-susceptible Staphylococcus epidermidis ATCC 12228
[3] = tested on: Staphylococcus aureus; test: Antimicrobial activity against methicillin-sensitive Staphylococcus aureus ATCC 29213
[4] = tested on: Staphylococcus aureus; test: Antimicrobial activity against methicillin- resistant Staphylococcus aureus ATCC 33591
[5] = tested on: Enterococcus faecalis; test: Antimicrobial activity against Vancomycin-resistant Enterococcus faecalis ATCC 51299
[6] = tested on: Escherichia coli; test: Antimicrobial activity against Escherichia coli ATCC 25922
[7] = tested on: Klebsiella pneumoniae; test: Antimicrobial activity against ESBL-producing Klebsiella pneumoniae ATCC 700603
[8] = tested on: Klebsiella pneumoniae; test: Antimicrobial activity against NDM-1 producing Klebsiella pneumoniae ATCC BAA-2146
[9] = tested on: Pseudomonas aeruginosa; test: Antimicrobial activity against Pseudomonas aeruginosa ATCC 27853
[10] = tested on: Citrobacter freundii; test: Antimicrobial activity against Citrobacter freundii ATCC 43864
[11] = tested on: Providencia rettgeri; test: Antimicrobial activity against Providencia rettgeri ATCC 31052
[12] = tested on: Proteus vulgaris; test: Antimicrobial activity against Proteus vulgaris ATCC 29905
[13] = tested on: Enterococcus faecium; test: Antimicrobial activity against vancomycin-resistant Enterococcus faecium ATCC 700221
[14] = tested on: Klebsiella pneumoniae; test: Antimicrobial activity against Klebsiella pneumoniae 7
[15] = tested on: Acinetobacter calcoaceticus; test: Antimicrobial activity against Acinetobacter calcoaceticus ATCC 19606

Row | SMILES | MIC [1] [µg/mL] | MIC [2] [µg/mL] | MIC [3] [µg/mL] | MIC [4] [µg/mL] | MIC [5] [µg/mL] | MIC [6] [µg/mL] | MIC [7] [µg/mL] | MIC [8] [µg/mL] | MIC [9] [µg/mL] | MIC [10] [µg/mL] | MIC [11] [µg/mL] | MIC [12] [µg/mL] | MIC [13] [µg/mL] | MIC [14] [µg/mL] | MIC [15] [µg/mL]
1 | CN[C@H](CC(C)C)C(=O)N[C@H]1C(=O)N[C@@H](CC(N)=O)C(=O)N[C@H]2C(=O)N[C@H]3C(=O)N[C@H](C(=O)N[C@H](C(=O)O)c4cc(O)cc(O)c4-c4cc3ccc4O)[C@H](O)c3ccc(c(Cl)c3)Oc3cc2cc(c3O[C@@H]2O[C@H](CO)[C@@H](O)[C@H](O)[C@H]2O[C@H]2C[C@](C)(N)[C@H](O)[C@H](C)O2)Oc2ccc(cc2Cl)[C@H]1O [VANCOMYCIN] | 1 (≈ 0.69 µM) | 0.5 (≈ 0.345 µM) | – | – | – | – | – | – | – | – | – | – | – | – | –
2 | CN(C)C(=N)c1ccc2cc(-c3ccc(Oc4ccc(-c5cc6ccc(C(=N)N(C)C)cc6[nH]5)cn4)cc3)[nH]c2c1 | 2 (≈ 3.69 µM) | 0.25 (≈ 0.462 µM) | 0.5 (≈ 0.923 µM) | 0.25 (≈ 0.462 µM) | 2 (≈ 3.69 µM) | 4 (≈ 7.38 µM) | 8 (≈ 14.8 µM) | 8 (≈ 14.8 µM) | 64 (≈ 118 µM) | 4 (≈ 7.38 µM) | 8 (≈ 14.8 µM) | 8 (≈ 14.8 µM) | 1 (≈ 1.85 µM) | 4 (≈ 7.38 µM) | 128 (≈ 236 µM)
3 | CC(C)NC(=N)c1ccc2cc(-c3ccc(Oc4ccc(-c5cc6ccc(C(=N)NC(C)C)cc6[nH]5)nc4)cc3)[nH]c2c1 | 0.25 (≈ 0.439 µM) | 0.125 (≈ 0.219 µM) | 0.25 (≈ 0.439 µM) | 0.125 (≈ 0.219 µM) | 0.5 (≈ 0.878 µM) | 2 (≈ 3.51 µM) | 8 (≈ 14 µM) | 8 (≈ 14 µM) | 64 (≈ 112 µM) | 4 (≈ 7.02 µM) | 4 (≈ 7.02 µM) | 8 (≈ 14 µM) | 0.25 (≈ 0.439 µM) | 8 (≈ 14 µM) | 16 (≈ 28.1 µM)
4 | CNC(=N)c1ccc2cc(-c3ccc(Oc4ccc(-c5cc6ccc(C(=N)NC)cc6[nH]5)nc4)cc3)[nH]c2c1 | 2 (≈ 3.89 µM) | 0.25 (≈ 0.487 µM) | 2 (≈ 3.89 µM) | 2 (≈ 3.89 µM) | 2 (≈ 3.89 µM) | 16 (≈ 31.2 µM) | 64 (≈ 125 µM) | 64 (≈ 125 µM) | 64 (≈ 125 µM) | 16 (≈ 31.2 µM) | 128 (≈ 249 µM) | 128 (≈ 249 µM) | 1 (≈ 1.95 µM) | 64 (≈ 125 µM) | > 128
5 | CC(C)NC(=N)c1ccc2cc(-c3ccc(Oc4ccc(-c5cc6ccc(C(=N)NC(C)C)cc6[nH]5)cn4)cc3)[nH]c2c1 | 1 (≈ 1.76 µM) | 0.25 (≈ 0.439 µM) | 0.25 (≈ 0.439 µM) | 0.25 (≈ 0.439 µM) | 1 (≈ 1.76 µM) | 4 (≈ 7.02 µM) | 8 (≈ 14 µM) | 16 (≈ 28.1 µM) | 32 (≈ 56.2 µM) | 8 (≈ 14 µM) | 16 (≈ 28.1 µM) | 16 (≈ 28.1 µM) | 0.25 (≈ 0.439 µM) | 8 (≈ 14 µM) | 64 (≈ 112 µM)
6 | CNC(=N)c1ccc2cc(-c3ccc(Oc4ccc(-c5cc6ccc(C(=N)NC)cc6[nH]5)c(Cl)c4)cc3)[nH]c2c1 | 16 (≈ 29.2 µM) | 2 (≈ 3.66 µM) | 4 (≈ 7.31 µM) | 4 (≈ 7.31 µM) | 16 (≈ 29.2 µM) | 64 (≈ 117 µM) | 64 (≈ 117 µM) | 64 (≈ 117 µM) | 128 (≈ 234 µM) | 64 (≈ 117 µM) | 128 (≈ 234 µM) | 64 (≈ 117 µM) | 8 (≈ 14.6 µM) | 64 (≈ 117 µM) | 128 (≈ 234 µM)
7 | CN(C)C(=N)c1ccc2cc(-c3ccc(Oc4ccc(-c5cc6ccc(C(=N)N(C)C)cc6[nH]5)c(C(F)(F)F)c4)cn3)[nH]c2c1 | 2 (≈ 3.28 µM) | 0.5 (≈ 0.82 µM) | 1 (≈ 1.64 µM) | 0.5 (≈ 0.82 µM) | 2 (≈ 3.28 µM) | 8 (≈ 13.1 µM) | 32 (≈ 52.5 µM) | 32 (≈ 52.5 µM) | > 128 | 16 (≈ 26.2 µM) | 128 (≈ 210 µM) | 32 (≈ 52.5 µM) | 1 (≈ 1.64 µM) | 32 (≈ 52.5 µM) | > 128
8 | CNC(=N)c1ccc2cc(-c3ccc(Oc4ccc(-c5cc6ccc(C(=N)NC)cc6[nH]5)c(OC)c4)cc3)[nH]c2c1 | 0.5 (≈ 0.921 µM) | 0.25 (≈ 0.461 µM) | 1 (≈ 1.84 µM) | 1 (≈ 1.84 µM) | 0.5 (≈ 0.921 µM) | 16 (≈ 29.5 µM) | 128 (≈ 236 µM) | 32 (≈ 59 µM) | > 128 | 32 (≈ 59 µM) | > 128 | 128 (≈ 236 µM) | 1 (≈ 1.84 µM) | 64 (≈ 118 µM) | > 128
9 | CNC(=N)c1ccc2cc(-c3ccc(Oc4ccc(-c5cc6ccc(C(=N)NC)cc6[nH]5)cn4)cc3)[nH]c2c1 | 1 (≈ 1.95 µM) | 0.125 (≈ 0.243 µM) | 0.25 (≈ 0.487 µM) | 0.25 (≈ 0.487 µM) | 1 (≈ 1.95 µM) | 16 (≈ 31.2 µM) | > 128 | > 128 | > 128 | 128 (≈ 249 µM) | > 128 | > 128 | 0.25 (≈ 0.487 µM) | 128 (≈ 249 µM) | 128 (≈ 249 µM)
10 | CN(C)C(=N)c1ccc2cc(-c3ccc(Oc4ccc(-c5cc6ccc(C(=N)N(C)C)cc6[nH]5)c(C(F)(F)F)c4)cc3)[nH]c2c1 | 8 (≈ 13.1 µM) | 2 (≈ 3.29 µM) | 2 (≈ 3.29 µM) | 2 (≈ 3.29 µM) | 8 (≈ 13.1 µM) | 64 (≈ 105 µM) | > 128 | > 128 | > 128 | 64 (≈ 105 µM) | > 128 | 128 (≈ 210 µM) | 8 (≈ 13.1 µM) | > 128 | > 128
